Experimental data as given in patent US11634426B2, “Selective estrogen receptor degraders” (Eli Lilly and Company, priority 2018, dated 2023).

Target: ERα receptor (Homo sapiens (Human), UniProt P03372)
Assay: PRα induction assay in MCF7 cells (ERα agonism)
Format: cell-based
Protocol: The purpose of the following PRα induction assay is to determine whether a test compound has agonistic activity against ERα receptor (an agonist would be expected to activate the receptor).
Culture MCF7 (purchased from ATCC HTB-22) in DMEM media supplemented with 10% FBS, 0.01 mg/mL human insulin 1 and 1% penicillin/streptomycin antibiotics and plate the cells (prior to becoming 70% confluent) in 384-well flat-bottom plates at a density of 4,000 cells per well in 20 μL volume in DMEM phenol red free media containing 10% FBS (charcoal stripped). Incubate the cells overnight in a cell culture incubator (5% CO2, 95% relative humidity at 37° C.) and allow the cells to attach to the plate. The following day, dose the cells with test compound. Use an Echo 555 acoustic dispenser to prepare compound serial dilutions (1:3) in a range from 6 μM to 0.0003 μM. Dose the cells with the addition of the test compound (5 μL) from the serial dilution plate to the cell plate producing a final DMSO concentration of 0.2% with a final concentration of the test compound dose range between 2 and 0.0001 μM. For the maximum point use media containing 0.2% of DMSO and for the minimum point, use fulvestrant diluted at […] final concentrations in the growth media containing 0.2% DMSO. After dosing with the test compound, incubate the cell plates at 37° C. and 5% CO2 for 24 hours. Fix the cells by adding 14% para-formaldehyde (10 μL) for 30 minutes at room temperature. Wash cells once with PBS (20 μL) and incubate with PBS (20 μL) containing 0.5% (v/v) TWEEN® 20 for 1 hour. Wash cells twice with PBS (20 μL) containing 0.05% TWEEN® 20 and block with 3% BSA in PBS containing 0.05% TWEEN® 20 and 0.1% TRITON™ X-100 (20 μL/well) for 1 hour at room temperature. […]
The following day, wash cells with PBS 0.05% TWEEN® 20 (2×20 μL) and incubate with secondary antibody (20 μL/well) (1:1000 dilution, Goat anti-rabbit IgM ALEXA FLUOR™ 488) in PBS 1% BSA for 105 minutes at room temperature. […] Scan plates with ACUMEN EXPLORER™ [Laser-scanning fluorescence microplate cytometer manufactured by TTP LABTECH LTD] to measure PRα. […]

Chain of ERα receptor (P03372 whole entry): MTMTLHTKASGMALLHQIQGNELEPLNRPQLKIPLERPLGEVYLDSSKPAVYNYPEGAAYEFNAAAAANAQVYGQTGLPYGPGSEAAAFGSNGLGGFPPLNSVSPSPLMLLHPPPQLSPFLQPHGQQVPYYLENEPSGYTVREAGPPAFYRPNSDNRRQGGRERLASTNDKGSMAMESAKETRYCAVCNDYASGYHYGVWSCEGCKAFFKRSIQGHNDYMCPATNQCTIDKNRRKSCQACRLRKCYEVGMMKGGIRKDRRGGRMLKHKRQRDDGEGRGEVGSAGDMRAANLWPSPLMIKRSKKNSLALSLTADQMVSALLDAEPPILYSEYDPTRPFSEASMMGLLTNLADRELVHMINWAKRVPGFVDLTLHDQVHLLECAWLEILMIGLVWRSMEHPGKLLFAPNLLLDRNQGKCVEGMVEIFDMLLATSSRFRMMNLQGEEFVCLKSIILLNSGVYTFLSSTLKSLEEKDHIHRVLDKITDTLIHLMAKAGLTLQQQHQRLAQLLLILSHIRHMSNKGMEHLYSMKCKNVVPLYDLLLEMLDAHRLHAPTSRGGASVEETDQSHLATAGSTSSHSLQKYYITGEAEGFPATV

agonistic activity (PRα induction) | SMILES
no significant agonistic activity | Oc1ccc2c3c(cnc2c1)-c1ccc(C(F)(F)F)cc1OC3c1ccc(OCCN2CC(CF)C2)cc1 (racemic) [Example 1, Racemic 5-(4-{2-[3-(Fluoromethyl)azetidin-1-yl]ethoxy}phenyl)-8-(trifluoromethyl)-5H-[1]benzopyrano[4,3-c]quinolin-2-ol]
no significant agonistic activity | Oc1ccc2c3c(cnc2c1)-c1ccc(C(F)(F)F)cc1OC3c1ccc(OCCN2CC(CF)C2)cc1 (single isomer, unassigned; isomer 1) [Example 1A, 5-(4-{2-[3-(Fluoromethyl)azetidin-1-yl]ethoxy}phenyl)-8-(trifluoromethyl)-5H-[1]benzopyrano[4,3-c]quinolin-2-ol, Isomer 1]
no significant agonistic activity | Oc1ccc2c3c(cnc2c1)-c1ccc(C(F)(F)F)cc1OC3c1ccc(OCCN2CC(CF)C2)cc1 (single isomer, unassigned; isomer 2) [Example 1B, 5-(4-{2-[3-(Fluoromethyl)azetidin-1-yl]ethoxy}phenyl)-8-(trifluoromethyl)-5H-[1]benzopyrano[4,3-c]quinolin-2-ol, Isomer 2]
